According to patent US20260345485A1, “INTRATHECAL NANOPARTICLE DELIVERY FOR TREATMENT OF LEPTOMENINGEAL TUMORS WITH CORE-SHELL PARTICLES MADE OF HYPERBRANCHED POLYGLYCEROL AND POLYLACTIC ACID” (priority 2022, published 2026):
Like-named read-outs stand apart in the source and are kept apart here.

Tests used:
[1] = hematological toxicity after intrathecal dosing; conditions: for blood cell counts: at MTD
Procedure: For hematological analysis, healthy nude mice (n=5 per time point) were administered either free BMN-673 (0.05 mg/kg) or BMN-NPs (0.5 mg/kg). At 3 days and 7 days post administration, 100 μL of blood was drawn via cardiac puncture using 15 μL EDTA-coated tubes. Levels of blood cell counts were measured using HEMA VET® HV950 multispecies hematologic analyzer (Drew Scientific, Oxford, CT, USA). Spleens and livers were harvested, fixed in formalin overnight, and H&E stained for histopathological evaluation.
To further test systemic toxicity differences between BMN-NPs and free BMN, red blood cells, white blood cells, and platelet levels were monitored in mice at day 3 and day 7 following two bi-weekly administrations at MTD (FIG. 5C).

[2] = test system: DAOY cells; experiment: DAOY intracisternal xenograft, single-dose treatment; format: in vivo, J:Nu mice; conditions: single dose 0.1 mg/kg
Procedure: Intra-cisternal transplantation of DAOY cells stably expressing luciferase was used for in vivo studies. A surgical catheter was implanted into their cisterna magna, and used for both cellular implantation and IT dosage during treatment. Mice were treated when their tumoral luminescence burden was detectable at […] BLI (unit), 7 days post-implantation. Mice were treated once, at the same dose level of 0.1 mg/kg with either BMN NPs or free BMN-673 (FIG. 7A).

[3] = test system: DAOY, D341, and D283 cells; experiment: drug combination synergy (Loewe model, CellTiter-Glo viability); format: cell-based
[4] = tolerability / maximum tolerated dose after intrathecal dosing
Procedure: To investigate toxicity, healthy female nude mice were first administered a specific dose of either free BMN-673 or BMN-NPs ranging from 0.03 mg/kg to 1.25 mg/kg. The mice were monitored for weight-loss or other signs of distress, and if the dose was well tolerated, 4 additional mice were dosed and monitored (n=5).
Toxicology studies were conducted in healthy female nude mice to characterize the safety of BMN-NPs in vivo. […] Increasing doses of either BMN-NP or free BMN-673 were administered to animals. Body weight loss and overall animal health were closely monitored.

[5] = test system: PARP1; conditions: cited from earlier work
[6] = test system: DAOY cells; experiment: DAOY intracisternal xenograft, twice-weekly treatment; conditions: 0.25 mg/kg BMN-NPs or 0.03 mg/kg free BMN-673
Procedure: DAOY cells (ATCC) were inoculated in 8 week J:Nu female mice at 10^5 cells suspended in 6 μL of DPBS. Tumor growth was followed by luminescence imaging twice a week, implantation. For luminescence imaging, mice were injected with 200 μL of a solution of D-Luciferin (15 mg/ml, Caliper Life Science) and imaged 5 minutes after injection using an IVIS200 in vivo imaging system (Xenogen, Caliper Life Science). An image showing light intensity (photons/second) was generated and the signal in each mouse was quantified using Living Image 4.0 software (Xenogen). On day 7 after tumor injection, all mice were randomized and treated with BMN-673 loaded NPs or free BMN-673 drug either once a week or bi-weekly for two weeks. Tumors were monitored for regression or progression with BLI, and left until neurological symptoms appeared or humane endpoint was reached (slow motion, >20% weight lose).
This study was repeated using twice-weekly dosing of 0.25 mg/kg of BMN-NPs or 0.03 mg/kg for free BMN-673 (FIGS. 7D-7F).

[7] = test system: D341 cells; experiment: D341 xenograft with existing spinal metastasis; format: in vivo, mice
Procedure: In the D341 model, most mice develop spinal metastasis that is detectable by IVIS imaging within 7 days of inoculation, so it was tested whether BMN-NPs and free BMN were efficacious against existing spinal metastasis by starting treatment at day 7 in the presence of leptomeningeal metastasis. […] This therapy was improved with a temozolomide (TMZ) combination approach. The synergy between TMZ and PARPi is well documented in vitro, as PARP1 trapping sensitizes cells to the DNA methylation mechanism of TMZ, but in vivo, a reduction in the PARPi dose is necessary to prevent acute toxicity.

[8] = format: in vivo; conditions: i.v., after 20 minutes, tumor-bearing mice
Procedure: CNS retention of ^89Zr-DFO-NPs was assessed in tumor-bearing mice. A leptomeningeal metastatic medulloblastoma model was administered DAOY cells stably expressing luciferase by IT injection into the CM. […] Two mice were injected intravenously with Gd-DTPA, and imaged via MRI after 20 minutes.

[9] = test system: breast, prostate and ovarian cancer; conditions: clinical trials; cited from earlier work
[10] = test system: medulloblastoma cell line D283; conditions: 1 micromolar Olaparib with radiation; cited from earlier work
[11] = combined with BMN-673, across all cell lines

With Cn1ncnc1[C@H]1c2n[nH]c(=O)c3cc(F)cc(c23)N[C@@H]1c1ccc(F)cc1 [BMN-673, talazoparib] the blood cell counts ([1]; 3 days post-treatment) was “a decrease in all leukocytes except for monocytes, and also showed a reduction in platelet count”, the blood cell counts ([1]; by 7 days) was “did not show an improvement outside of basophil count” and the blood cell levels ([1]; two bi-weekly administrations, 0.05 mg/kg/week free BMN, day 3 to day 7) was “progressive leukopenia and thrombocytopenia at day 3 which did not improve appreciably at day 7”. The “body weight loss versus BMN-NP group” value [2] was “lost significantly more weight than the BMN-NP group”, the “mice with tumor reduction benefit” value [2] was “one out five” and the “synergy with TMZ (combinatorial index)” value ([3]; Loewe synergy model, with temozolomide) was “high levels of synergy”. For the same compound, the “cell viability compared to BMN-673 alone” value ([3]; incremental log-fold increases in BMN-673 in presence of TMZ) was “decreased viability”, the body weight loss ([4]; 0.03 mg/kg twice a week, IT) was “less than 10%” and the body weight loss ([4]; 0.05 mg/kg, single IT dose) was “less than 15%”. The “dose above which toxicity-related symptoms developed (lethargy, labored breathing, death)” value ([4]; IT) was “greater than 0.06 mg/kg”, the LD50 ([4]; mouse, in vivo) was 0.125 mg/kg and the MTD ([4]; mouse, in vivo) was 0.05 mg/kg. For the same compound, the “lethal dose (lethal at any dose at or higher than)” value ([4]; single IT dose, J:Nu mice) was ≥ 0.06 mg/kg, the PARP1 trapping [5] was “potent PARP1 trap” and the tumor response [6] was “tumors continued to progress with treatment of free drug”. For the same compound, the “effect on cerebral and spinal tumor burden” value ([7]; four repeat doses, free BMN-673 at equitoxic dose, start day 7) was “no effect” and the tolerability ([7]; in combination with temozolomide) was “not tolerated at even the lowest doses of BMN-673”.

In the case of O=P1(N(CCCl)CCCl)NCCCO1 (stereo not shown) [Cyclophosphamide], the “synergy with BMN-673” value [3] is reported as “did not show consistent synergist action”.

For O=C(O)CN(CCN(CC(=O)O)CC(=O)O)CCN(CC(=O)O)CC(=O)O.[Gd+3] [Gd-DTPA], the “signal in the brain by MRI” value [8] was “no detectable Gd-DTPA signal in the brain”.

With CCc1c2c(nc3ccc(OC(=O)N4CCC(N5CCCCC5)CC4)cc13)-c1cc3c(c(=O)n1C2)COC(=O)[C@]3(O)CC [Irinotecan] the “synergy with BMN-673” value [3, 11] was “did not show consistent synergist action”.

With O=NN(CCCl)C(=O)NC1CCCCC1 [Lomustine] the “synergy with BMN-673” value [3, 11] was “did not show consistent synergist action”.

In the case of O=C(c1cc(Cc2n[nH]c(=O)c3ccccc23)ccc1F)N1CCN(C(=O)C2CC2)CC1 [Olaparib, olaparib], the “anti-tumour effect and side effects” value [9] is listed as “anti-tumour effect and side effects of grade 1 or 2” and the “DNA double stranded breaks” value [10] is listed as “high levels of DSB”.

For CC[C@@]1(O)C(=O)OCc2c1cc1n(c2=O)Cc2cc3c(CN(C)C)c(O)ccc3nc2-1 [Topotecan], the “synergy with BMN-673” value [3, 11] was “did not show consistent synergist action”.

In the case of C[C@]1(c2nc3c(C(N)=O)cccc3[nH]2)CCCN1 [veliparib], the PARP1 trapping [5] is given as “relatively poor PARP1 trapping ability”.
